Measurements as given in ChEMBL document CHEMBL2203133 (J Med Chem, 2012).

Legend:
[1] = Plasma concentration in BALB/c mouse at 10 mg/kg, po at 1 hr; format: ADME, organism-based; set-up: dose 10 mg/kg, route oral
[2] = molecular target: T1, Serine/threonine-protein kinase Chk1 (Homo sapiens, UniProt O14757)
T1 sequence (O14757 whole entry): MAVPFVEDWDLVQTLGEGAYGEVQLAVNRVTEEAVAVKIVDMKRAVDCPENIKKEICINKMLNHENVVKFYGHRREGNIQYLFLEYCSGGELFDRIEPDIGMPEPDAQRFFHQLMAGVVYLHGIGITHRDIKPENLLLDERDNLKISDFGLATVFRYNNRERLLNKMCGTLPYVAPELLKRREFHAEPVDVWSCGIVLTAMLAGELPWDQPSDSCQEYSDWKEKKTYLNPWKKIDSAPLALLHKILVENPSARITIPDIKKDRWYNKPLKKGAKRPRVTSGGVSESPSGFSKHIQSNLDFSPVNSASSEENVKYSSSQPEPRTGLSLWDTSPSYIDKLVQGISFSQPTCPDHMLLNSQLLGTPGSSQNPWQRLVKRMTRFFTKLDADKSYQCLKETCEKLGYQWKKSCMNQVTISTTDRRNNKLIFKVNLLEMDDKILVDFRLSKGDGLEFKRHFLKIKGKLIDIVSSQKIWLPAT

[3] = system: Plasma; assay: Dose normalized plasma concentration in BALB/c mouse at 1 mg/kg, iv at 6 hrs administered as bolus dose; format: ADME, organism-based; set-up: dose 1 mg/kg, route intravenous; conditions: in vivo
[4] = Plasma concentration in BALB/c mouse at 10 mg/kg, po at 6 hrs; format: ADME, organism-based; set-up: dose 10 mg/kg, route oral
[5] = in vitro; conditions: mouse, liver microsomes
[6] = system: Plasma; assay: Dose normalized plasma concentration in BALB/c mouse at 1 mg/kg, iv at 1 hr administered as bolus dose; format: ADME, organism-based; set-up: dose 1 mg/kg, route intravenous; conditions: in vivo

concentration at 1 h [1]: 193 nM
IC50 [2]: 4.4 nM
Cp/dose [3]: < 20 nM
concentration at 6 h [4]: 12 nM
metabolised at 0.5 h [5]: 17%
Cp/dose [6]: 320 nM
SMILES: CNc1cc(Nc2cnc(C#N)c(O[C@@H]3CCN(C)C3)n2)ncc1-c1cnn(C)c1
